From BindingDB's records for doi:10.1021/jm701164t (Irbm-Mrl, 2008)

Molecular target: Gag-Pol polyprotein (Human immunodeficiency virus type 1 group M subtype B (isolate HXB2), UniProt P04585)
Assay: Microtiter Plate Assay for Strand Transfer
Settings: pH 7.8; 37 °C
Description: The microtiter plate assay for stand transfer was performed with an immobilized donor substrate and a target substrate biotinylated at the 3-prime end of each DNA strand. Integrase was first assembled with immobilized LTR oligonucleotides for 30 min. Inhibitors were added after assembly and washings. For the strand transfer reaction, it was initiated with the addition of the biotinylated target substrate. Strand transfer reaction mixtures were incubated for additional 30 min, and the strand transfer products were detected by using alkaline phosphatase-conjugated avidin (Boehringer Mannheim, Indianapolis, Ind.).

CC(c1nc(C(=O)NCc2ccc(F)cc2)c(O)c(=O)[nH]1)N(C)C (stereo unspecified) [JMC496646 Compound 11]
IC50: 100 nM
